Our source for the IC50 values is patent US10689378B2, “Triazolopyridine compounds and uses thereof” (Novartis AG, priority 2016, dated 2020).

One assay addresses T1, EED (1-441)-His protein (Homo sapiens, UniProt O75530).
T1 construct: 30 nM EED (1-441)-His protein
The assay is described as follows: EED-H3K27Me3 peptide competition binding assay by AlphaScreen. The note with it: EED-H3K27Me3 peptide competition, AlphaScreen; read-out: (a) IC50 EED Alphascreen binding Qualified. An outline of the steps:
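Serially diluted compound (12 points, 3-fold) incubated 20 min with 30 nM EED(1-441)-His and 15 nM biotin-H3K27Me3(19-33) peptide in 25 mM HEPES pH 8, 0.02% Tween-20, 0.5% BSA. Ni-chelate acceptor/streptavidin donor beads (10 μg/mL each) added, 1 h rt dark; 615 nm emission normalized to controls, dose-response fit for IC50.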

The target in assay [1] is wild type PRC2 (wtPRC2) complex (Homo sapiens, UniProt O75530). The assay is described as follows: EED LC-MS assay (SAH production by PRC2). Conditions: PRC2 LC-MS assay; read-out: (b) IC50 EED LC-MS Qualified. The assay is classed as biochemical. The procedure, abridged: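 Pentameric PRC2 (EZH2, SUZ12, EED, Rbap48, AEBP), 12 nM final, preincubated 20 min with compound and SAM, then 1.5 μM biotinylated H3K27me0 peptide, 1 μM SAM, pH 8.0, 120 min at rt. SAH quantified by LC-MS/MS with d4-SAH; control-normalized activity fitted for IC50.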
Chain of wild type PRC2 (wtPRC2) complex (O75530 whole entry): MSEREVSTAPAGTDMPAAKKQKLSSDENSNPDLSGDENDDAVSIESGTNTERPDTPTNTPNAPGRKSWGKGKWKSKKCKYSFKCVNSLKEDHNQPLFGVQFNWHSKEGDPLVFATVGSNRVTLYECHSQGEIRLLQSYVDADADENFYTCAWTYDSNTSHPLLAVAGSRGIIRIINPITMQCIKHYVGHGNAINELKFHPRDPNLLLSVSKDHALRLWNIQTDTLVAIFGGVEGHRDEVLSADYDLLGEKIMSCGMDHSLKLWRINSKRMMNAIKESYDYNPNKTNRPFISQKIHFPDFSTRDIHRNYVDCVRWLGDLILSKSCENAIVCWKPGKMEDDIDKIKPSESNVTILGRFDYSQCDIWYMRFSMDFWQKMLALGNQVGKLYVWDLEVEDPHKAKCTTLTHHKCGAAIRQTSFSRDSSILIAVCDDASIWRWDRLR
Chain of wild type PRC2 (wtPRC2) complex (Q15910 whole entry partner): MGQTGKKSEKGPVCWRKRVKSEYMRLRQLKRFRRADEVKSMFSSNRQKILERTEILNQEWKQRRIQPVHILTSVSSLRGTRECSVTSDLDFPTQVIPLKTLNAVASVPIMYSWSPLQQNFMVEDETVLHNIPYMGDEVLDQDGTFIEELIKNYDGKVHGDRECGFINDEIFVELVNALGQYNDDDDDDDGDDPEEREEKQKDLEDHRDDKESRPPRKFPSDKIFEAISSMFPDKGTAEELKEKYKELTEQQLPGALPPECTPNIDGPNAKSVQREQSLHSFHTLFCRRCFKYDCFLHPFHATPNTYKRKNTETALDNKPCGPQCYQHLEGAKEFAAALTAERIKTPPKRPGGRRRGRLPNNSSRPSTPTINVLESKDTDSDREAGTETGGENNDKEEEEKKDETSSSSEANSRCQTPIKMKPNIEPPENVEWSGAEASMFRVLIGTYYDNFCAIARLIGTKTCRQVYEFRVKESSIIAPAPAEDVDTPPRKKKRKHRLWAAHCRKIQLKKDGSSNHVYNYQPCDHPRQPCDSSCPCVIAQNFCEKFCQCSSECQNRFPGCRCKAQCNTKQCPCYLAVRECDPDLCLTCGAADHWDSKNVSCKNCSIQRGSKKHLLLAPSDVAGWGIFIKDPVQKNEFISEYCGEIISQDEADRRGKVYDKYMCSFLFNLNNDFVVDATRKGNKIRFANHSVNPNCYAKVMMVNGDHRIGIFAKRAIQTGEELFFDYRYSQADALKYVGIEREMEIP
Chain of wild type PRC2 (wtPRC2) complex (Q15022 whole entry partner): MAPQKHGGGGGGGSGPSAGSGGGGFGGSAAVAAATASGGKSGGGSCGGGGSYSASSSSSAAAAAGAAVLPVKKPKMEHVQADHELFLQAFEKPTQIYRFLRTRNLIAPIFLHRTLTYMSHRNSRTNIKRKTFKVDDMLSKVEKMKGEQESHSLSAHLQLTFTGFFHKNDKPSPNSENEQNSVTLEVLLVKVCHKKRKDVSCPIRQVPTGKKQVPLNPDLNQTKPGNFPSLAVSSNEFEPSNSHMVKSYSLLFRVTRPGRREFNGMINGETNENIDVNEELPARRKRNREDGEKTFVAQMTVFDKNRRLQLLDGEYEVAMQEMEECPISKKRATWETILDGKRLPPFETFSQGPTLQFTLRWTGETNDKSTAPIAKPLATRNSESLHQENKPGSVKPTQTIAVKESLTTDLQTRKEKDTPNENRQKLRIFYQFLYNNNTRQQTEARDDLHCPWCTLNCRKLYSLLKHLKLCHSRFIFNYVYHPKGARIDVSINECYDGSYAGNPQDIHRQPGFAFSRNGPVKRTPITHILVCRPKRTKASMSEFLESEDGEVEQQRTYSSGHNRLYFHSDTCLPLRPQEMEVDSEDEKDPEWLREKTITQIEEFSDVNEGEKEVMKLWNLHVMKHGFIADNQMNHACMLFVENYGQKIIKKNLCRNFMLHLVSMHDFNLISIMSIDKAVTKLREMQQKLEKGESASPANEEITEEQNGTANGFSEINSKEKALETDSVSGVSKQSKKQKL
Chain of wild type PRC2 (wtPRC2) complex (Q09028 whole entry partner): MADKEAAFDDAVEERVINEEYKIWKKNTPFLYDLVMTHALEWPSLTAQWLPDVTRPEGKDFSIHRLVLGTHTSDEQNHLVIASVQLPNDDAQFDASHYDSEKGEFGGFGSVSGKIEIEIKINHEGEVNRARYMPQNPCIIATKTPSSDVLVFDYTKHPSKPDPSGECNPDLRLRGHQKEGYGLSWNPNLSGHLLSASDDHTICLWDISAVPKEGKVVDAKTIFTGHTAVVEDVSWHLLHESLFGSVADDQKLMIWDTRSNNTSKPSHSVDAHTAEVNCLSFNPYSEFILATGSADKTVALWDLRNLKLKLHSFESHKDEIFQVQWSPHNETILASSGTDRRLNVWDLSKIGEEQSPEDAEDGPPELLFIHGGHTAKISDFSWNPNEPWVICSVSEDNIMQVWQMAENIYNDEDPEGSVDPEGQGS
Chain of wild type PRC2 (wtPRC2) complex (Q6ZN18 whole entry partner): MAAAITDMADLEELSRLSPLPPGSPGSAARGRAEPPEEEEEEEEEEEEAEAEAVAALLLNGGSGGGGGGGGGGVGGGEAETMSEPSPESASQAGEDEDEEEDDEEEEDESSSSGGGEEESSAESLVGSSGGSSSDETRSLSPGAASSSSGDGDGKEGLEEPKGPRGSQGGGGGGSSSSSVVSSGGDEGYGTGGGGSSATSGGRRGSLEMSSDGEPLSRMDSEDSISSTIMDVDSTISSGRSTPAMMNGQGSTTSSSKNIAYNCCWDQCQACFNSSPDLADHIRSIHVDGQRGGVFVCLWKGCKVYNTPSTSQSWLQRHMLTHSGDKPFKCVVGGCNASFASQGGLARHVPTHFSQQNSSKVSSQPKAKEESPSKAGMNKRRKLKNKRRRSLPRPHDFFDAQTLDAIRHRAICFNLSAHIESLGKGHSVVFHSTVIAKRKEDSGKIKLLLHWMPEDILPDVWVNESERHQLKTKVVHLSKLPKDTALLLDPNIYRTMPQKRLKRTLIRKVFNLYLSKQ

Assay [2] concerns H3K27 methylation in G401 cell. Description: ELISA (H3K27 methylation) assay in G401 cells. The note with it: Homo sapiens, G-401, H3K27 methylation ELISA, read-out: (c) IC50 ELISA Qualified. The assay is classed as cell-based, human. The procedure, abridged: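 G401 cells treated 48 h with 3-fold dilutions (8 or 12 points, top 20 μM). Acid-extracted histones probed by ELISA for H3K27me3 or H3K27me2 with ECL readout, normalized to total H3. Percent inhibition versus DMSO fitted to dose-response curve for IC50.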
(In general: ELISA stands for enzyme-linked immunosorbent assay.)

In general, IC50 refers to the concentration at which inhibition is half-maximal.

T1 sequence (O75530 whole entry): as the sequence (O75530 whole entry) above

As to `COc1cccc(F)c1CNc1ccc(-c2c(C)nn(C(C)C)c2C)c2nncn12` [Example 245, N-(2-fluoro-6-methoxybenzyl)-8-(1-isopropyl-3,5-dimethyl-1H-pyrazol-4-yl)-[1,2,4]triazolo[4,3-a]pyridin-5-amine], the IC50 on EED (1-441)-His protein was 14.6 nM; in assay [1], 27.7 nM; in assay [2] it was 8.2 nM.
The matching figures for `COC(=O)N1CCC(n2cc(-c3ccc(NCc4c(F)cccc4OC)n4cnnc34)cn2)CC1` [Example 246, methyl 4-(4-(5-((2-fluoro-6-methoxybenzyl)amino)-[1,2,4]triazolo[4,3-a]pyridin-8-yl)-1H-pyrazol-1-yl) piperidine-1-carboxylate]: 68.9 nM, 106 nM and 242 nM.
On to `COc1cccc(F)c1CNc1ccc(-c2cn(C)nc2C(F)(F)F)c2nncn12` [Example 247, N-(2-fluoro-6-methoxybenzyl)-8-(1-methyl-3-(trifluoromethyl)-1H-pyrazol-4-yl)-[1,2,4]triazolo[4,3-a] pyridin-5-amine], for which the IC50 was determined as 35.8 nM on EED (1-441)-His protein, 700 nM in assay [1] and 42.7 nM in assay [2].
Consider `COc1cccc(F)c1CNc1ccc(-c2cnc(F)cc2C)c2nncn12` [Example 248, 8-(6-fluoro-4-methylpyridin-3-yl)-N-(2-fluoro-6-methoxybenzyl)-[1,2,4]triazolo[4,3-a] pyridin-5-amine], for which the IC50 at EED (1-441)-His protein was 16.5 nM; in assay [1] it was 81.8 nM; in assay [2] it was 9.6 nM.
Consider `COc1cccc(F)c1CNc1ccc(-c2ccc(C)nc2C)c2nncn12` [Example 249, 8-(2,6-dimethylpyridin-3-yl)-N-(2-fluoro-6-methoxybenzyl)-[1,2,4]triazolo[4,3-a] pyridin-5-amine], for which the IC50 at EED (1-441)-His protein came out at 22.7 nM; in assay [1] it was 41.9 nM; in assay [2], 12.4 nM.
Turning to `COc1cccc(F)c1CNc1ccc(-c2ccc(C#N)nc2C)c2nncn12` [Example 250, 5-(5-((2-fluoro-6-methoxybenzyl)amino)-[1,2,4]triazolo[4,3-a]pyridin-8-yl)-6-methylpicolinonitrile], the IC50 at EED (1-441)-His protein was found to be 14.3 nM; in assay [1], 20.2 nM; in assay [2], 6.5 nM.
`COc1cccc(F)c1CNc1ccc(-c2cnc(C#N)cc2C)c2nncn12` [Example 251, 5-(5-((2-fluoro-6-methoxybenzyl)amino)-[1,2,4]triazolo[4,3-a]pyridin-8-yl)-4-methylpicolinonitrile]: the half-maximal inhibitory concentration (IC50) at EED (1-441)-His protein was found to be 15.7 nM; in assay [1] it was 41.8 nM; in assay [2], 8.6 nM.
The matching figures for `COc1cccc(F)c1CNc1ccc(-c2cnc(C(=O)N(C)C)cc2C)c2nncn12` [Example 252, 5-(5-((2-fluoro-6-methoxybenzyl)amino)-[1,2,4]triazolo[4,3-a]pyridin-8-yl)-N,N,4-trimethylpicolinamide]: 14.1 nM, 7.9 nM and 4.4 nM.
For `COc1cc(F)cc(F)c1CNc1ccc(-c2cnccc2C)c2nncn12` [Example 253, N-(2,4-difluoro-6-methoxybenzyl)-8-(4-methylpyridin-3-yl)-[1,2,4]triazolo[4,3-a] pyridin-5-amine], the figures for the IC50 (on EED (1-441)-His protein; in assay [1]; in assay [2]) were 66.2 nM, 289 nM and 59.2 nM, respectively.
For `COc1cccc(F)c1CNc1ccc(-c2ccc(CNC(C)=O)nc2)c2nncn12` [Example 256, N-((5-(5-((2-fluoro-6-methoxybenzyl)amino)-[1,2,4]triazolo[4,3-a]pyridin-8-yl)pyridin-2-yl)methyl) acetamide], the concentration for half-maximal inhibition (IC50) at EED (1-441)-His protein worked out at 25.1 nM; in assay [1] it was 159 nM; in assay [2], 10.4 nM.
With `COc1cccc(F)c1CNc1ccc(-c2cnccc2C(F)F)c2nncn12` [Example 258, 8-(4-(difluoromethyl)pyridin-3-yl)-N-(2-fluoro-6-methoxybenzyl)-[1,2,4] triazolo [4,3-a]pyridin-5-amine], the IC50 came to 24.5 nM at EED (1-441)-His protein, 71.6 nM in assay [1] and 16.7 nM in assay [2].
